According to patent publication US10077243B2, “Compounds for treating disorders mediated by metabotropic glutamate receptor 5, and methods of use thereof” (Sunovion Pharmaceuticals Inc., priority 2009, dated 2018):

target: T1, human mGluR5 (Homo sapiens, UniProt P41594); assay: In vitro cell-based FLIPR calcium assay for positive modulation of the activation of mGluR5 by glutamate (PAM EC50); conditions: HEK293/GLAST cells expressing recombinant human mGluR5; FLIPR calcium signal; glutamate added at its EC20; read-out: mGluR5 PAM EC50
T1 construct: expressed in transfected cells; host or cells: HEK293 cells stably expressing rat GLAST (EAAT1), stably transfected with pcDNAzeo3.1 carrying synthetic human mGluR5 DNA; zeocin-selected single clones
T1 sequence (P41594 21-1212): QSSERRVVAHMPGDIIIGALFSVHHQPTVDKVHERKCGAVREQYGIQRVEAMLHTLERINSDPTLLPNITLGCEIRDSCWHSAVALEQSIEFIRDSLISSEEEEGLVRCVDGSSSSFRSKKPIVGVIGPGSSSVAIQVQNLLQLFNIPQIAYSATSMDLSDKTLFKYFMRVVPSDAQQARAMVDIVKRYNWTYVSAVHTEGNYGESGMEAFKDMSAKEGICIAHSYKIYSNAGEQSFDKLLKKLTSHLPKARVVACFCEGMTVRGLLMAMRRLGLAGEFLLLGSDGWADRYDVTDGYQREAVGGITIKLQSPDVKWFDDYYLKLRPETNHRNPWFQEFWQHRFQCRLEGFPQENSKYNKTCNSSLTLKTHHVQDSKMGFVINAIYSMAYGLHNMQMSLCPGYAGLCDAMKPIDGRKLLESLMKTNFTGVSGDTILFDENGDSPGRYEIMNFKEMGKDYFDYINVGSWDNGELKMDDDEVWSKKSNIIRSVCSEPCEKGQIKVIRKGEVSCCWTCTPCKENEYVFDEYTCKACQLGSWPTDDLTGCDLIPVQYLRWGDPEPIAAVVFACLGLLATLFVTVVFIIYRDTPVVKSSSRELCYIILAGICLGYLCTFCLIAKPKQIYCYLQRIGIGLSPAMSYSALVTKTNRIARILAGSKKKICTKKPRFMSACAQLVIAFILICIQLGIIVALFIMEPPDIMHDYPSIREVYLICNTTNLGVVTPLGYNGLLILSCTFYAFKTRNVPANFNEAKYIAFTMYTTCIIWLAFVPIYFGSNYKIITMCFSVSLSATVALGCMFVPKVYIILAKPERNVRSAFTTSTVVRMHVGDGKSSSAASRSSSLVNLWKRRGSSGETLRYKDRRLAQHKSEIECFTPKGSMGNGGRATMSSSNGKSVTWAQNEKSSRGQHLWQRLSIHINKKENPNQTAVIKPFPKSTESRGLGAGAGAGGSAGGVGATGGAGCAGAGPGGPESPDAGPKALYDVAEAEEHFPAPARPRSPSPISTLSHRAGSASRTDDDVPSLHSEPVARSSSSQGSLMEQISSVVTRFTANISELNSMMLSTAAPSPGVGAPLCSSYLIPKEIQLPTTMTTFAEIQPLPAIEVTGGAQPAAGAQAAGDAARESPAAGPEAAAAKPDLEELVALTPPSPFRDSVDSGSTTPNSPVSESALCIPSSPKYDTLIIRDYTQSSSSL
Procedure, shortened: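 PAM activity was measured as FLIPR calcium fluorescence in the presence of an EC20 glutamate concentration determined daily from a glutamate concentration-response curve. Cells were HEK293/GLAST clones expressing mGluR5, dye-loaded at 25 °C for 45–60 min in HEPES-buffered HBSS; vehicle control was 0.3% DMSO.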

Row | SMILES | EC50
1 | CCCN1CCc2nc3cc(C#Cc4cccc(F)c4)ccc3c(=O)n2CC1 [Example 8.8, 8-((3-fluorophenyl)ethynyl)-3-propyl-2,3,4,5-tetrahydro-[1,4]diazepino[7,1-b]quinazolin-11(1H)-one] | 100 to 300 nM
2 | CN1CCCC1c1nc2cc(C#Cc3cccc(F)c3)ccc2c(=O)n1C (stereo not shown) [Example 2.4, 7-((3-fluorophenyl)ethynyl)-3-methyl-2-(1-methylpyrrolidin-2-yl)quinazolin-4(3H)-one] | 100 to 300 nM
3 | CC1CCc2nc3cc(C#Cc4ccccn4)ccc3c(=O)n2CC1 (single isomer, unassigned) [6.10/6.11 faster moving enantiomer (fraction 1), 8-methyl-3-(pyridin-2-ylethynyl)-7,8,9,10-tetrahydroazepino[2,1-b]quinazolin-12(6H)-one] | < 10 nM
4 | O=c1c2ccc(C#Cc3cccc(F)c3)cc2nc2n1CCN(CCO)C2 [Example 5.8, 9-((3-fluorophenyl)ethynyl)-2-(2-hydroxyethyl)-3,4-dihydro-1H-pyrazino[2,1-b]quinazolin-6(2H)-one] | 30 to 100 nM
5 | COCCn1cnc2cc(C#Cc3ccncc3)ccc2c1=O [Example 1.17, 3-(2-methoxyethyl)-7-(pyridin-4-ylethynyl)quinazolin-4(3H)-one] | 100 to 300 nM
6 | O=c1c2ccc(C#Cc3cccc(F)c3)cc2nc2n1CCOC2 [Example 4.1, 9-((3-fluorophenyl)ethynyl)-3,4-dihydro-[1,4]oxazino[3,4-b]quinzolin-6(1H)-one] | < 10 nM
7 | COC1(C)CCc2nc3cc(C#Cc4ccccn4)ccc3c(=O)n2CC1 (stereo not shown) [Example 6.50, 8-methoxy-8-methyl-3-(pyridin-2-ylethynyl)-7,8,9,10-tetrahydroazepino[2,1-b]quinazolin-12(6H)-one] | 30 to 100 nM
8 | O=c1c2ccc(C#Cc3ccccn3)cc2nc2n1CC(CO)C2 (stereo not shown) [Example 3.18, 2-(hydroxymethyl)-6-(pyridin-2-ylethynyl)-2,3-dihydropyrrolo[2,1-b]quinazolin-9(1H)-one] | 100 to 300 nM

The next lines start with the values.

Row | EC50 | SMILES
9 | 100 to 300 nM | O=c1c2ccc(C#Cc3cccc(F)c3)cc2nc2n1CCN(C1CCOC1)CC2 (stereo not shown) [Example 8.13, 8-((3-fluorophenyl)ethynyl)-3-(tetrahydrofuran-3-yl)-2,3,4,5-tetrahydro-[1,4]diazepino[7,1-b]quinazolin-11(1H)-one acetonitrile]
10 | 100 to 300 nM | CC1(C)CCc2nc3cc(C#Cc4ccccn4)cnc3c(=O)n2C1 [Example 11.5, 8,8-dimethyl-3-(pyridin-2-ylethynyl)-8,9-dihydro-6H-dipyrido[1,2-a:3′,2′-d]pyrimidin-11(7H)-one]
11 | 10 to 30 nM | COCCc1cnc2cc(C#Cc3cccc(F)c3)ccn2c1=O [Example 13.10, 8-((3-fluorophenyl)ethynyl)-3-(2-methoxyethyl)-4H-pyrido[1,2-a]pyrimidin-4-one]
12 | 100 to 300 nM | O=c1c2ccc(C#Cc3ccccn3)cc2nc2n1CCN1CCCC1C2 (stereo not shown) [Example 9.5, 11-(pyridin-2-ylethynyl)-2,3,5,6,14,14a-hexahydropyrrolo[1′,2′:4,5][1,4]diazepino[7,1-b]quinazolin-8(1H)-one]
13 | 100 to 300 nM | O=c1c2ccc(C#Cc3ccccn3)cc2nc2n1CC1CCCN1CC2 (single isomer, unassigned) [Example 9.4a/9.4b slower moving enantiomer (fraction 2), 9-(pyridin-2-ylethynyl)-2,3,5,6,14,14a-hexahydropyrrolo[2′,1′:3,4][1,4]diazepino[7,1-b]quinazolin-12(1H)-one]
14 | < 10 nM | COC(C)c1nc2cc(C#Cc3cccc(F)c3)ccc2c(=O)n1C (stereo not shown) [Example 2.11, 7-((3-fluorophenyl)ethynyl)-2-(1-methoxyethyl)-3-methylquinazolin-4(3H)-one]
15 | 10 to 30 nM | CC1CCc2nc3cc(C#Cc4ccccn4)ccc3c(=O)n2C1 (stereo not shown) [Example 4.12, 8-methyl-3-(pyridin-2-ylethynyl)-8,9-dihydro-6H-pyrido[2,1-b]quinazolin-11(7H)-one]
16 | < 10 nM | O=c1c2ccc(C#Cc3ccccc3)cc2nc2n1CCCCC2 [Example 6.4, 3-(phenylethynyl)-7,8,9,10-tetrahydroazepino[2,1-b]quinazolin-12(6H)-one]
